Data from the NIST ThermoML archive (doi:10.1016/j.jct.2012.10.008).
Numbers after ± are expanded uncertainties.

Assay: xn = mol fraction of the nth substance listed
Conditions: 101 kPa, Liquid; for viscosity: Falling or rolling sphere viscometry; for mass density: Vibrating tube method

CCCC[NH3+].O=[N+]([O-])[O-] [n-butylammonium nitrate] + CCCO
Conditions	mass density, 293.15 K [kg/m3]	mass density, 298.15 K [kg/m3]	mass density, 303.15 K [kg/m3]	mass density, 308.15 K [kg/m3]	mass density, 313.15 K [kg/m3]	viscosity, 293.15 K [mPa·s]	viscosity, 298.15 K [mPa·s]	viscosity, 303.15 K [mPa·s]	viscosity, 308.15 K [mPa·s]	viscosity, 313.15 K [mPa·s]
x1 = 0.0999	855.12 ± 0.18	851.36 ± 0.18	847.56 ± 0.18	843.75 ± 0.18	839.91 ± 0.18	4.091 ± 0.035	3.599 ± 0.031	3.182 ± 0.027	2.824 ± 0.024	2.516 ± 0.021
x1 = 0.2004	898.27 ± 0.3	894.64 ± 0.3	890.99 ± 0.3	887.32 ± 0.3	883.65 ± 0.3	6.691 ± 0.065	5.828 ± 0.057	5.108 ± 0.05	4.503 ± 0.044	3.989 ± 0.039
x1 = 0.2994	935.27 ± 0.54	931.74 ± 0.53	928.19 ± 0.53	924.64 ± 0.53	921.09 ± 0.53	10.45 ± 0.12	8.998 ± 0.1	7.81 ± 0.089	6.822 ± 0.078	6.009 ± 0.068
x1 = 0.4007	968.52 ± 0.91	965.08 ± 0.9	961.63 ± 0.9	958.18 ± 0.89	954.74 ± 0.89	16.54 ± 0.22	14.11 ± 0.19	12.11 ± 0.16	10.49 ± 0.14	9.207 ± 0.12
x1 = 0.4995	997.32 ± 1.4	993.96 ± 1.4	990.59 ± 1.4	987.23 ± 1.4	983.88 ± 1.4	22.52 ± 0.34	19.08 ± 0.29	16.29 ± 0.25	14.05 ± 0.21	12.19 ± 0.19
x1 = 0.6495	1035.44 ± 2.5	1032.16 ± 2.5	1028.88 ± 2.5	1025.62 ± 2.4	1022.36 ± 2.4	38.05 ± 0.7	31.62 ± 0.58	26.59 ± 0.49	22.59 ± 0.41	19.39 ± 0.36
x1 = 0.7978	1067.64 ± 4	1064.42 ± 3.9	1061.21 ± 3.9	1058.02 ± 3.9	1054.86 ± 3.9	61.01 ± 1.3	49.83 ± 1.1	41.2 ± 0.89	34.54 ± 0.75	29.21 ± 0.63
x1 = 0.9008	1087.69 ± 5.2	1084.51 ± 5.2	1081.34 ± 5.2	1078.19 ± 5.1	1075.07 ± 5.1	83.36 ± 2.4	67.14 ± 1.7	55.16 ± 1.3	46.11 ± 1.1	40.09 ± 0.96
x1 = 1	1104.68 ± 6.6	1101.52 ± 6.6	1098.38 ± 6.5	1095.26 ± 6.5	1092.17 ± 6.5	111.35 ± 4.1	89.95 ± 2.9	73.04 ± 2.1	60.25 ± 1.6	50.12 ± 1.3

CCCC[NH3+].O=[N+]([O-])[O-] [n-butylammonium nitrate] + CO
Conditions	mass density, 293.15 K [kg/m3]	mass density, 298.15 K [kg/m3]	mass density, 303.15 K [kg/m3]	mass density, 308.15 K [kg/m3]	mass density, 313.15 K [kg/m3]	viscosity, 293.15 K [mPa·s]	viscosity, 298.15 K [mPa·s]	viscosity, 303.15 K [mPa·s]	viscosity, 308.15 K [mPa·s]	viscosity, 313.15 K [mPa·s]
x1 = 0.0999	884.86 ± 0.19	880.73 ± 0.19	876.67 ± 0.19	872.57 ± 0.19	868.45 ± 0.2	1.377 ± 0.012	1.267 ± 0.011	1.173 ± 0.01	1.119 ± 0.01	1.014 ± 0.009
x1 = 0.1998	944.76 ± 0.31	940.97 ± 0.31	937.17 ± 0.31	933.38 ± 0.31	929.59 ± 0.31	2.723 ± 0.027	2.466 ± 0.024	2.248 ± 0.022	2.058 ± 0.02	1.893 ± 0.019
x1 = 0.3012	987.04 ± 0.57	983.43 ± 0.57	979.82 ± 0.57	976.23 ± 0.57	972.64 ± 0.57	4.923 ± 0.057	4.382 ± 0.05	3.934 ± 0.045	3.555 ± 0.041	3.229 ± 0.037
x1 = 0.4005	1016.59 ± 0.98	1013.11 ± 0.98	1009.64 ± 0.97	1006.18 ± 0.96	1002.74 ± 0.95	9.129 ± 0.12	8 ± 0.11	7.037 ± 0.094	6.242 ± 0.083	5.584 ± 0.074
x1 = 0.5015	1039.93 ± 1.6	1036.55 ± 1.5	1033.17 ± 1.5	1029.82 ± 1.5	1026.48 ± 1.5	14.79 ± 0.23	12.8 ± 0.2	11.16 ± 0.17	9.779 ± 0.15	8.66 ± 0.13
x1 = 0.6507	1065.48 ± 2.7	1062.21 ± 2.6	1058.95 ± 2.6	1055.7 ± 2.6	1052.47 ± 2.6	28.64 ± 0.53	24.08 ± 0.44	20.59 ± 0.38	17.77 ± 0.33	15.5 ± 0.28
x1 = 0.8007	1085.18 ± 4.1	1081.98 ± 4.1	1078.78 ± 4.1	1075.61 ± 4	1072.46 ± 4	51.33 ± 1	42.07 ± 0.91	35.23 ± 0.76	29.65 ± 0.64	25.41 ± 0.55
x1 = 0.9007	1096.21 ± 5.3	1093.04 ± 5.3	1089.88 ± 5.2	1086.74 ± 5.2	1083.63 ± 5.2	77.73 ± 2.1	64.34 ± 1.6	53.02 ± 1.2	44.24 ± 1.1	37.21 ± 0.89
x1 = 1	1104.68 ± 6.6	1101.52 ± 6.6	1098.38 ± 6.5	1095.26 ± 6.5	1092.17 ± 6.5	111.35 ± 4.1	89.95 ± 2.9	73.04 ± 2.1	60.25 ± 1.6	50.12 ± 1.3
